How the values were obtained:
[1] = system: L5178Y TK+/− mouse lymphoma cells
Procedure: The idea was to reproduce the metabolizing conditions prevailing in the liver.
This was followed by a 24-h recovery period when the experiment was performed in the presence of Aroclor-induced rat liver S9 metabolizing mix (at 2% final concentration). […] The nuclei were then stained with Giemsa before counting the micronuclei among 1000 mononucleated cells.

HeLa cells [2] = assay: Toxicity assay: adenylate kinase activity in culture medium; format: cell-based, human; settings: 24 h; for Adenylate kinase activity in culture medium: STS 2µM
Procedure: The toxicity assay was performed 24 h after starting cell treatment. The cell culture supernatant was centrifuged at 6000×g for 10 min to pellet cells and cell debris. One-twentieth of the supernatant was then used to measure adenylate kinase activity according to the supplier’s protocol (Lonza Biosciences, Basel, Switzerland).

HeLa cells [3] = assay: MTT colorimetric toxicity assay; format: cell-based; settings: STS 2µM, 24 h
Procedure: incubated in cell culture medium containing 0.5 mg/ml 3-(4,5-dimethylthiazol-2-yl)-2,5-diphenyltetrazolium bromide (MTT) for 2 h at 37°C. The cells were then incubated for 30 min at 37°C in the solubilization solution (isopropanol/1N HCl 23:1) before collecting the supernatant to measure the absorbance at 540 and 620 nm for the background.
Supplementary Figure 4. […] (A) HeLa cells were incubated with propidium iodide after […]
staurosporine (STS). (B) HeLa cells were incubated with MTT after treatment for 24 h with […]
The results presented are representative of two independent experiments at least. Error bar= S.D., p-values (p) were calculated using Student's t-test. Source data are provided as a Source Data file.
(also on this page, place not known: % dead Colorimetry measure (au) cells of) […]

nonsense mutations = system: nonsense mutations; parameters: method as in PMID 28096517; settings: cited from earlier work

Compound: O=P1(N(CCCl)CCCl)NCCCO1 (centres unmarked) [Cyclopho sphamide, cyclophosphamide]
- Micronucleated cells [1]: 60

Compound: CN[C@@H]1C[C@H]2O[C@@](C)([C@@H]1OC)n1c3ccccc3c3c4c(c5c6ccccc6n2c5c31)C(=O)NC4 [STS, staurosporine, reference compound]
- Release of adenylate kinase, in words (HeLa cells [2]): released adenylate kinase
- Adenylate kinase activity in culture medium (HeLa cells [2]; average): 1755878
- Adenylate kinase activity in culture medium (HeLa cells [2]; experiment 1): 1822755
- Adenylate kinase activity in culture medium (HeLa cells [2]; experiment 2): 1498272
- Adenylate kinase activity in culture medium (HeLa cells [2]; experiment 3): 1946608
- MTT colorimetry measure (HeLa cells [3]; average): 0.183 au
- MTT colorimetry measure (HeLa cells [3]; experiment 1): 0.0455 au
- MTT colorimetry measure (HeLa cells [3]; experiment 2): 0.1825 au
- MTT colorimetry measure (HeLa cells [3]; experiment 3): 0.321 au

Compound: Nc1ncnc(N[C@@H]2O[C@H](CO)[C@@H](O)[C@H]2O)c1[N+](=O)[O-] [clitocine, (2R,3R,4S,5R)-2-[(6-amino-5-nitropyrimidin-4-yl)amino]-5-(hydroxymethyl)oxolane-3,4-diol]
- Nonsense mutation correction compared to G418 (nonsense mutations): correct nonsense mutations more efficiently than G418
